Assay results reported in article PMC4063695, “Design of Embedded-Hybrid Antimicrobial Peptides with Enhanced Cell Selectivity and Anti-Biofilm Activity” (PLoS ONE, 2014).
No end group written: not given here.

Legend:
[1] = tested on: Gram-negative and Gram-positive strains; experiment: MIC over all tested strains (range, geometric mean); assay type: cell-based; design: GM (geometric mean of MIC values from all microbial strains): unit not given here; details: all strains of Table 2
From the text: (§1) E. coli ATCC25922, P. aeruginosa ATCC27853, S. aureus ATCC29213, S. epidermidis ATCC12228, S. faecalis ATCC29212 and B. subtilis CMCC63501 were obtained from the College of Veterinary Medicine, Northeast Agricultural University (Harbin, China), E. coli K88, E. coli CVCC1515 and P. aeruginosa ATCC15442 were bestowed by Prof. J.H. Wang (Gene Engineering Laboratory, Feed Research Institute, Chinese Academy of Agricultural Sciences Beijing, China) and E. coli UB1005 was kindly provided by Prof. Q.S. Qi (State Key Laboratory of Microbial Technology, Shandong University, China). […] Briefly, 50 µl of approximate 0.5–1 × 10^6 colony forming units (CFU)/ml of cells were diluted in Mueller-Hinton broth and distributed to 96-well plate, 50 µl of twofold peptides were added and the plates was incubated at 37°C for 18–24 h. The MIC values were calculated as the lowest peptide concentration that prevented visible turbidity and negative control of the pure broth without microbes. The tests were performed at least three times in duplicate.

E. coli ATCC25922 [2] = experiment: MIC in the presence of physiological salts; assay type: cell-based, Escherichia coli; design: unit not given here
From the text: as §1
(§2) The stability of peptides was tested in the MIC assay in different environments, including salt sensitivity, human serum, thermal stability and susceptibility to enzymes. For salt sensitivity, 0.5–1 × 10^6 CFU/ml of P. aeruginosa ATCC27853 and E. coli ATCC25922 were treated with peptides, while different salts were added to MHB, and the final concentrations of physiological salts were as follows: 150 mM NaCl, 4.5 mM KCl, 1 mM MgCl2, 6 µM NH4Cl, 8 µM ZnCl2, 4 µM FeCl3 and […] [33]. Except salt sensitivity, only E. coli ATCC25922 was treated with peptides. […] For testing peptide sensitivity to the proteolytic enzymes, the peptides were incubated in advance at 37°C for 1 h with a 1 mg/ml final concentration of the proteolytic enzymes (trypsin, pepsin, papain and proteinase K). For testing thermal stability, incubation occurred at 100°C for 1 h. After these treatments, the procedures were same as MIC assay described above.

P. aeruginosa ATCC27853 [3] = experiment: MIC in the presence of physiological salts; assay type: cell-based, Pseudomonas aeruginosa; design: unit not given here
From the text: as §1, §2

E. coli ATCC25922 [4] = experiment: MIC after treatment with serum, enzymes and heat; assay type: cell-based, Escherichia coli; details: E. coli ATCC25922
From the text: as §1, §2

E. coli UB1005 [5] = experiment: Cytoplasmic membrane electrical potential, diSC3-5; assay type: cell-based, Escherichia coli; details: diSC3-5 release over 600 s
Procedure: Peptides could alter the electrical potential of cytoplasmic membrane, and this potential that was measured by using E. coli UB1005 cells and diSC3-5 (Sigma), a membrane potential-sensitive fluorescent dye, as previously described, [35]. E. coli UB1005 was cultured to logarithmic phase in MHB, harvested by centrifugation, washed twice with buffer (5 mM of HEPES and 20 mM of glucose, pH 7.4) and resuspended to an OD600 of 0.05 in the identical buffer. The dye (diSC3-5) was added to above buffer at a final concentration of 0.4 µM. And the bacteria were incubated to take up the dye for 90 min. KCl was added to a final concentration of 0.1 M for equilibrating K^+ concentration between extracellular and intracellular environment, and then the bacteria were incubated at room temperature for 10 min. The cell suspension (2 ml) was placed in a 1-cm cuvette, and the peptides were added to different concentrations. The fluorescence intensity changes were monitored by using an F-4500 fluorescence spectrophotometer (Hitachi, Japan) with an excitation wavelength of 622 nm and an emission wavelength of 670 nm.

B. subtilis CMCC63501 = details: CMCC63501
From the text: as §1

E. coli ATCC25922 [6] = details: ATCC25922
From the text: as §1

E. coli CVCC1515 = details: CVCC1515
From the text: as §1

E. coli K88 = details: MHB, 37°C, 18-24 h, at least three times in duplicate
From the text: as §1

E. coli UB1005 [7] = details: UB1005
From the text: as §1

P. aeruginosa ATCC15442 = details: ATCC15442
From the text: as §1

P. aeruginosa ATCC27853 [8] = details: ATCC27853
From the text: as §1

P. aeruginosa variant 1 = details: P. aeruginosa variant 1, obtained by step-wise culture with ciprofloxacin hydrochloride; MHB, 37°C, 18-24 h
From the text: as §1

P. aeruginosa variant 2 = details: P. aeruginosa variant 2, obtained by step-wise culture with gentamicin; MHB, 37°C, 18-24 h
From the text: as §1

S. pullorum C79-13 = details: C79-13
From the text: as §1

S. typhimurium ATCC14028 = details: ATCC14028
From the text: as §1

S.aureus ATCC29213 = details: ATCC29213
From the text: as §1

S.epidermidis ATCC12228 = details: ATCC12228
From the text: as §1

S.faecalis ATCC29212 = details: ATCC29212
From the text: as §1

[9] = tested on: human red blood cells (hRBC); experiment: Hemolytic activity; assay type: cell-based; details: pH 7.4
Procedure: The amount of released hemoglobin by the lysis of erythrocytes was measured for hemolytic activity of peptides. Human erythrocytes were obtained from a healthy donor with written informed consent. The experimental protocol was reviewed and approved by the ethics committee of the Northeast Agricultural University Hospital. The measurement was based on a previously described method. The fresh hRBCs were washed three times by centrifugation (1000 g, 5 min, 4°C) in PBS (pH 7.4), and then resuspended in PBS to obtain the erythrocyte with a dilution of approximately 1% (v/v). Then, 50 µL of hRBCs solution was incubated with 50 µL of different concentrations of the peptides dissolved in PBS for 1 h at 37°C, before centrifugation (1000 g, 5 min, 4°C) again. The absorbance of the supernatants was measured at optical density (OD) 492 nm. […] The control samples for 0% and 100% hemolysis consisted of hRBCs in PBS (Ablank) only and in 0.1% Triton X-100 (Atriton), respectively. The percentage of hemolysis was calculated according to the following equation: [drawing 3]

[10] = Circular dichroism, secondary structure; assay type: physicochemical; details: 30 mM SDS micelles; 150 µM peptide
Procedure: The CD spectra were measured with a CD spectropolarimeter (Jasco, J-820, Tokyo, Japan) at 25°C, using a 0.1 cm path length rectangular quartz cell. The spectra were recorded at between 190 and 250 nm at 10 nm/min scanning speed. At least three scans were conducted for each peptide sample.
The acquired CD spectra were converted to the mean residue ellipticity through the following equation: [drawing 1]
where θM is the mean residue ellipticity [deg.cm2.dmol-1], θobs is the observed ellipticity corrected for the buffer at a given wavelength [mdeg], c is the peptide concentration [mM], l is the path length [mm], and n is the number of amino acids.
The percentage of α-helical structure was calculated as followings: [drawing 2]
where [θ]222 is the experimentally observed mean residue ellipticity at 222 nm, and values for [θ]^0 and [θ]^100 which correspond to 0 and 100% a-helix content at 222 nm, are estimated to be −2000 and −32000, respectively, [29].

[11] = all kinds of salts in physiological concentrations

CC[C@H](C)[C@H](NC(=O)CN)C(=O)NCC(=O)N[C@@H](C)C(=O)N[C@H](C(=O)N[C@@H](CC(C)C)C(=O)N[C@@H](CCCCN)C(=O)N[C@H](C(=O)N[C@@H](CC(C)C)C(=O)N[C@H](C(=O)N[C@H](C(=O)NCC(=O)N[C@@H](CC(C)C)C(=O)N1CCC[C@H]1C(=O)N[C@@H](C)C(=O)N[C@@H](CC(C)C)C(=O)N[C@H](C(=O)N[C@@H](CO)C(=O)N[C@@H](Cc1c[nH]c2ccccc12)C(=O)N[C@H](C(=O)N[C@@H](CCCCN)C(=O)N[C@@H](CCCNC(=N)N)C(=O)N[C@@H](CCCCN)C(=O)N[C@@H](CCCNC(=N)N)C(=O)N[C@@H](CCC(N)=O)C(=O)N[C@@H](CCC(N)=O)C(N)=O)[C@@H](C)CC)[C@@H](C)CC)[C@@H](C)O)[C@@H](C)O)C(C)C)C(C)C [ME26, melittin, reference compound]
GM (geometric mean of MIC values from all microbial strains) [1]: 2.2
MIC, FeCl3 (E. coli ATCC25922 [2]; 4 µM FeCl3 in MHB): 2
MIC, NH4Cl (E. coli ATCC25922 [2]; 6 µM NH4Cl in MHB): 2
MIC, ZnCl2 (E. coli ATCC25922 [2]; 8 µM ZnCl2 in MHB): 4
MIC, MgCl2 (E. coli ATCC25922 [2]; 1 mM MgCl2 in MHB): 4
MIC, KCl (E. coli ATCC25922 [2]; 4.5 mM KCl in MHB): 2
MIC, NaCl (E. coli ATCC25922 [2]; 150 mM NaCl in MHB): 4
MIC, Mix (E. coli ATCC25922 [2]; [11]): 4
MIC, CaCl2 (E. coli ATCC25922 [2]; in MHB): 2
MIC, Control (E. coli ATCC25922 [2]; no added salts, unit not given): 2
MIC, CaCl2 (P. aeruginosa ATCC27853 [3]; 2.5 µM CaCl2 in MHB): 2
MIC, FeCl3 (P. aeruginosa ATCC27853 [3]; 4 µM FeCl3 in MHB): 2
MIC, NH4Cl (P. aeruginosa ATCC27853 [3]; 6 µM NH4Cl in MHB): 2
MIC, ZnCl2 (P. aeruginosa ATCC27853 [3]; 8 µM ZnCl2 in MHB): 2
MIC, MgCl2 (P. aeruginosa ATCC27853 [3]; 1 mM MgCl2 in MHB): 8
MIC, KCl (P. aeruginosa ATCC27853 [3]; 4.5 mM KCl in MHB): 2
MIC, NaCl (P. aeruginosa ATCC27853 [3]; 150 mM NaCl in MHB): 2
MIC, Mix (P. aeruginosa ATCC27853 [3]; [11]): 16
MIC, Control (P. aeruginosa ATCC27853 [3]; no added salts, unit not given): 2
MIC, Serum 25% (E. coli ATCC25922 [4]; 25% human serum in MHB): 8
MIC, Serum 50% (E. coli ATCC25922 [4]; 50% human serum in MHB): 8
MIC, Heat 100°C (E. coli ATCC25922 [4]; peptide incubated at 100°C for 1 h): 2
MIC, Enzymes Caroid (E. coli ATCC25922 [4]; peptide pre-incubated 1 h at 37°C with 1 mg/ml enzyme (method names papain)): >128
MIC, Enzymes Pepsin (E. coli ATCC25922 [4]; peptide pre-incubated 1 h at 37°C with 1 mg/ml pepsin): >128
MIC, Enzymes Proteinase K (E. coli ATCC25922 [4]; peptide pre-incubated 1 h at 37°C with 1 mg/ml proteinase K): 32
MIC, Enzymes Trypsin (E. coli ATCC25922 [4]; peptide pre-incubated 1 h at 37°C with 1 mg/ml trypsin): >128
cytoplasmic membrane depolarization (in words) (E. coli UB1005 [5]): able to permeabilize the bacterial cell membrane even at a lower concentration than their MICs

FRIRVRV-NH2 [FV7, reference compound]
MIC (B. subtilis CMCC63501): 16 µM
MIC (E. coli ATCC25922 [6]): 16 µM
MIC (E. coli CVCC1515): 32 µM
MIC (E. coli K88): 16 µM
MIC (E. coli UB1005 [7]): 32 µM
MIC (P. aeruginosa ATCC15442): 16 µM
MIC (P. aeruginosa ATCC27853 [8]): 16 µM
MIC (P. aeruginosa variant 1): 8 µM
MIC (P. aeruginosa variant 2): 16 µM
MIC (S. pullorum C79-13): 128 µM
MIC (S. typhimurium ATCC14028): 16 µM
MIC (S.aureus ATCC29213): 64 µM
MIC (S.epidermidis ATCC12228): 32 µM
MIC (S.faecalis ATCC29212): 32 µM
GM (geometric mean of MIC values from all microbial strains) [1]: 29
MHC [9]: >256 µM
secondary structure (in words) [10]: β-sheet
